Columns and labels:
[1] = test system: OV2944 cells; test: Cell binding experiment (fluorescently labeled protein/peptide, confocal microscope); set-up: species or system mouse; conditions: for cell-binding ability (fluorescence intensity): 5 μM rhodamine-labeled partial peptides, ranking
Protocol: The OV2944-HM-1 cell line (which may be referred to as “OV2944 cells” or, simply, “cells”), which is a commonly used cell line, was used. OV2944 cells were obtained from RIKEN BioResource Center (Cell No. RCB1483), and cultured in DMEM medium (+10% FBS) according to a conventional method.
Cultured cells were fixed on a glass plate (4% paraformaldehyde/phosphate buffer, room temperature, 10 minutes), and treated with sheep serum. Thereafter, mouse dicalcin (5 μM) fluorescently labeled with tetramethylrhodamine (TMR) was reacted with the cells in the presence of 1 mM CaCl2 (4° C., overnight). After washing with TBS buffer, analysis was carried out using a confocal microscope (Carl Zeiss). Further, cell nuclei were stained with DAPI.
An experiment was carried out in the same manner as in Experimental Example 1-1 except that the reaction was carried out in the presence of 1 mM EGTA (which may be referred to as “in the absence of calcium”).
An experiment was carried out in the same manner as in Experimental Example 1-1 except that immunostaining was carried out using an anti-mouse dicalcin antibody (Catalog No. MAB5167, R&D Systems) as a primary antibody, and an Alexa Fluor (registered trademark) 594-labeled anti-rat IgG antibody (Catalog No. A11007, Invitrogen) as a secondary antibody.
An experiment was carried out in the same manner as in Experimental Example 1-1 except that each of partial peptides p1 to p7 (5 μM) fluorescently labeled with rhodamine was used.

[2] = test system: OV2944 cells; test: Cell invasion assay (Matrigel Invasion Chamber); format: cell-based, mouse; conditions: for cell invasion, ranking of suppression: 8 μM each, versus 10 μM BSA
Protocol: (§1) Cell invasion was analyzed using a BD BioCoat (registered trademark) Matrigel Invasion Chamber (Becton, Dickinson and Company). First, a certain amount of cells (about 1×10^5 cells/well) were treated with 2 μM, 8 μM, or 20 μM mouse dicalcin at room temperature for 20 minutes.
(§2) The treated cells were washed by centrifugation treatment, and then plated in the upper chamber of a transwell preliminarily coated with Matrigel, followed by performing culture using DMEM (+10% FBS) as a medium.
(§3) About 16 hours later, the invading cells that had migrated into the lower chamber were fixed using 4% paraformaldehyde/phosphate buffer at room temperature for 10 minutes, and then stained with crystal violet, followed by excision of the membrane, embedding on a slide, and counting of the cell number.

[3] = test system: OVCAR cells; test: Cell invasion assay; format: cell-based, human
Protocol: as §1, §2
as §3, with “number. The invasion index was calculated as {(number of stained cells)/(number of plated cells)}×100(%), and normalized by the later-mentioned result of Experimental Example 2-2, which was taken as 100(%).” for “number.”
The OVCAR-3 cell line (which may be referred to as “OVCAR cells” or, simply, “cells”), which is a commonly used cell line, was used. OVCAR cells were obtained from RIKEN BioResource Center (Cell No. RCB2135), and cultured in DMEM medium (+10% FBS) according to a conventional method. This line is a human ovarian cancer (adenocarcinoma)-derived cell line.
An analysis was carried out in the same manner as in Experimental Example 2-1 except that OVCAR cells were used as the cells, and that 8 μM or 20 μM human dicalcin was used instead of mouse dicalcin.
An analysis was carried out in the same manner as in Experimental Example 9-1 except that 20 μM BSA was used instead of human dicalcin.
An analysis was carried out in the same manner as in Experimental Example 2-1 except that OVCAR cells were used as the cells, and that 2 μM or 10 μM hDC-p6 was used as a partial peptide. Statistical analysis was carried out by unpaired Student t-test in order to analyze a significant difference.

[4] = test system: PC-3 cells; test: Cell invasion assay; format: cell-based, human; conditions: 10 μM; control hDC-p1 10 μM
Protocol: as §1, §2
as §3, with “number. The invasion index was calculated as {(number of stained cells)/(number of plated cells)}×100(%), and normalized by the later-mentioned result of Experimental Example 2-2, which was taken as 100(%).” for “number.”
An analysis was carried out in the same manner as in Experimental Example 2-1 except that PC-3 cells were used as the cells, and that 10 μM hDC-p6 was used as a partial peptide. Statistical analysis was carried out by unpaired Student t-test in order to analyze a significant difference.

[5] = test system: human cancer tissues; test: Cell binding experiment on paraffin sections of human cancer tissues
Protocol: After washing, analysis was carried out using a fluorescence microscope (Olympus Corporation).
An experiment was carried out in the same manner as in Experimental Example 15-1 except that a paraffin section derived from a human prostate cancer tissue (US Biomax Inc.) was used as a target.
An experiment was carried out in the same manner as in Experimental Example 15-1 except that a paraffin section derived from a human colorectal (colon) cancer tissue (US Biomax Inc.) was used as a target. The white dotted line indicates the border between the tumor area and the normal area.
An experiment was carried out in the same manner as in Experimental Example 15-1 except that a paraffin section derived from a human colorectal (rectal) cancer tissue (US Biomax Inc.) was used as a target. The white dotted line indicates the border between the tumor area and the normal area.
An experiment was carried out in the same manner as in Experimental Example 15-1 except that a paraffin section derived from a human breast cancer (breast ductal carcinoma) tissue (US Biomax Inc.) was used as a target.
An experiment was carried out in the same manner as in Experimental Example 15-1 except that a paraffin section derived from a human breast cancer (invasive lobular carcinoma) tissue (US Biomax Inc.) was used as a target. […]

[6] = test system: OVCAR cells; test: Cell binding experiment; set-up: species or system human; conditions: 5 μM rhodamine-labeled; calcium absent; control p1
[7] = test system: PC-3 cells; test: Cell binding experiment; set-up: species or system human; conditions: 5 μM rhodamine-labeled; calcium absent; control hDC-p1
Source text: The PC-3 cell line (which may be referred to as “PC-3 cells” or, simply, “cells”), which is a commonly used cell line, was used. PC-3 cells were obtained from RIKEN BioResource Center (Cell No. RCB2145), and cultured in DMEM medium (+10% FBS) according to a conventional method. This line is a human prostate cancer-derived cell line.

[8] = test system: OV2944 cells; test: Analysis of survival after cell transfer (Kaplan Meier); format: in vivo, mouse; conditions: intraperitoneal, 3 nmoles/two days
Protocol: The purified OV2944 cells expressing the fluorescent protein tdTomato were transferred into the abdominal cavity of mice (B6C3F1 strain, 9 weeks old, female, CLEA Japan, Inc.) (1×10^5 cells/mouse). […] On Day 21, the abdominal organs were removed, and OV2944 cells expressing the fluorescent protein tdTomato in the liver were observed using a fluorescence stereomicroscope OV110 (Olympus Corporation).
Intraperitoneal injection was carried out in the same manner as in Experimental Example 13-1 and Experimental Example 13-2, and survival analysis was carried out thereafter to provide Experimental Example 14-1 and Experimental Example 14-2. For the survival curve according to the Kaplan Meier method, a significant difference was analyzed by log-rank test.

[9] = test system: OVCAR cells; test: Cell survival assay; format: cell-based, human; conditions: 20 μM; versus 10 μM BSA
Protocol: (§4) First, a certain amount of cells (about 1×10^5 cells/well) were treated with 20 μM mouse dicalcin at room temperature for 20 minutes. The cells were then washed and aliquoted into a 96-well plate, followed by performing culture. One hour later, after washing with PBS buffer, the cells were fixed using 4% paraformaldehyde/phosphate buffer at room temperature for 10 minutes. The cells were then stained with crystal violet and solubilized, followed by measuring the absorbance (measurement wavelength, 550 nm) in order to analyze the cell survival rate. The cell survival rate was calculated as {(number of stained cells)/(number of plated cells)}×100(%). Normalization was carried out by the later-mentioned result of Experimental Example 4-2, which was taken as 100(%).
An experiment was carried out in the same manner as in Experimental Example 4-1 except that OVCAR cells were used as the cells, and that 20 μM human dicalcin was used instead of mouse dicalcin.
An experiment was carried out in the same manner as in Experimental Example 10-1 except that 10 μM BSA was used instead of human dicalcin.

[10] = test system: OV2944 cells; test: Cell survival assay (crystal violet); format: cell-based, mouse; conditions: 20 μM; versus 10 μM BSA
Protocol: as §4
An experiment was carried out in the same manner as in Experimental Example 4-1 except that 10 μM BSA was used instead of mouse dicalcin.

[11] = test system: OV2944 cells; test: Cell adhesion assay (Matrigel); format: cell-based, mouse; conditions: 8 or 20 μM
Protocol: First, a certain amount of cells (about 1×10^5 cells/well) were treated with 8 μM or 20 μM mouse dicalcin at room temperature for 20 minutes. After coating a 24-well plate with, and allowing gelation of, BD Matrigel (registered trademark) (Becton, Dickinson and Company), the pretreated cells were washed and plated therein.
About 1 hour later, nonadherent cells were aspirated. After washing, adherent cells were fixed using 4% paraformaldehyde/phosphate buffer at room temperature for 10 minutes, and then stained with crystal violet, followed by counting of the cell number. The adhesion index was calculated as {(number of stained cells)/(number of plated cells)}×100(%). Normalization was carried out by the later-mentioned result of Experimental Example 3-2, which was taken as 100(%).
An experiment was carried out in the same manner as in Experimental Example 3-1 except that mouse dicalcin was not added.
An experiment was carried out in the same manner as in Experimental Example 3-1 except that 10 μM BSA was used instead of mouse dicalcin.

Molecule: p2: partial peptide of mouse dicalcin, SEQ ID NO: 13, SLIAVFQKY (listed as Mus musculus)
- cell-binding ability (fluorescence intensity) [1]: second highest cell-binding ability
- cell invasion, ranking of suppression [2]: followed by p2, p′7, and p5 in this order

Molecule: p7: partial peptide of mouse dicalcin, SEQ ID NO: 18, GGLAIACHDSFIQTSQKRI (listed as Mus musculus)
- cell-binding ability (fluorescence intensity) [1]: second highest cell-binding ability
- cell invasion, ranking of suppression [2]: followed by p2, p′7, and p5 in this order

Molecule: hDC-p6: partial peptide of human dicalcin, SEQ ID NO: 7, QLDFSEFLNLI (listed as Homo sapiens)
- cell invasion (invasion index) ([3]; 2 or 10 μM, control peptide p1 10 μM): suppresses cell invasion in a concentration-dependent manner
- cell invasion (invasion index) [4]: suppresses cell invasion
- binding to cancer cells of tissue sections ([5]; 5 μM, 4° C. overnight, ovarian, prostate, colon, rectal, breast (4 types), renal, lung, glioma): binds to cancer cells of any of these tissues
- determination of tumor area by fluorescence positive reaction ([5]; colon cancer section, blocking and peptide reaction together, 37° C., 1 hour): tumor area could be determined
- binding to the cells (fluorescence intensity) [6]: binds to the cells
- binding to the cells (fluorescence intensity) [7]: binds to the cells

Molecule: p5: partial peptide of mouse dicalcin, SEQ ID NO: 16, MMKKLDLNCDG (listed as Mus musculus)
- cell-binding ability (fluorescence intensity) [1]: second highest cell-binding ability
- cell invasion, ranking of suppression [2]: followed by p2, p′7, and p5 in this order

Molecule: p1: partial peptide of mouse dicalcin, SEQ ID NO: 12, PTETERCIE; used as control peptide (listed as Mus musculus)
- average number of days of survival [8]: 32 days

Molecule: p4: partial peptide of mouse dicalcin, SEQ ID NO: 15, MNTELAAFTKNQKDPGVLDR (listed as Mus musculus)
- cell-binding ability (fluorescence intensity) [1]: third highest cell-binding ability

B1: human dicalcin: recombinant full-length human dicalcin (S100A11), SEQ ID NO:1 (protein, listed as Homo sapiens)
chain: AKISSPTETERCIESLIAVFQKYAGKDGYNYTLSKTEFLSFMNTELAAFTKNQKDPGVLDRMMKKLDTNSDGQLDFSEFLNLIGGLAMACHDSFLKAVPSQKRT
- cell survival rate [9]: does not affect the survival of the cells
- invasion index ([3]; 20 μM, normalized to BSA as 100%): 43.9%
- cell invasion (invasion index) ([3]; 8 or 20 μM human dicalcin, versus 20 μM BSA): suppresses the cell invasion in a concentration-dependent manner

B2: mouse dicalcin: recombinant full-length mouse dicalcin (S100A11), SEQ ID NO:11, expressed in E. coli (protein, listed as Mus musculus)
chain: PTETERCIESLIAVFQKYSGKDGNNTQLSKTEFLSFMNTELAAFTKNQKDPGVLDRMMKKLDLNCDGQLDFQEFLNLIGGLAIACHDSFIQTSQKRI
- cell survival rate [10]: does not affect the survival of the cells
- binding to the cells (fluorescence) ([1]; 5 μM TMR-labeled, 1 mM CaCl2 versus 1 mM EGTA): larger amount of mouse dicalcin binds to the cells in the presence of calcium
- cell invasion (invasion index) ([2]; 2, 8 or 20 μM, normalized to 10 μM BSA): suppresses the cell invasion in a concentration-dependent manner
- cell adhesion (adhesion index) [11]: suppresses the cell adhesion in a concentration-dependent manner

Reference: patent US11696938B2, “Human cancer cell metastasis inhibitory agent and human cancer cell determination agent” (priority 2017, dated 2023)
